Laboratory results as given in PMC6709224, “PIM-Related Kinases Selectively Regulate Olfactory Sensations in Caenorhabditis elegans” (eNeuro, 2019).

Assays:
Format in all cases: biochemical
PIM-1 [1] = molecular target: T1, PIM-1 (Homo sapiens, UniProt P11309); test: radioactive in vitro kinase assay, autoradiography; conditions: labelled compound; autophosphorylation and GST-NFATC1 (1-418) as acceptor
T1 construct: gene PIM1; full-length short isoform (313 residues, recalled), GST fusion expressed in bacteria

PRK-2 [2] = molecular target: T2, PRK-2 (Caenorhabditis elegans, UniProt Q20443); test: radioactive in vitro kinase assay, autoradiography; conditions: labelled compound; autophosphorylation and GST-NFATC1 (1-418) as acceptor
T2 construct: full-length, GST fusion in pGEX-6P-2, expressed in bacteria
T2 sequence (Q20443 1-441): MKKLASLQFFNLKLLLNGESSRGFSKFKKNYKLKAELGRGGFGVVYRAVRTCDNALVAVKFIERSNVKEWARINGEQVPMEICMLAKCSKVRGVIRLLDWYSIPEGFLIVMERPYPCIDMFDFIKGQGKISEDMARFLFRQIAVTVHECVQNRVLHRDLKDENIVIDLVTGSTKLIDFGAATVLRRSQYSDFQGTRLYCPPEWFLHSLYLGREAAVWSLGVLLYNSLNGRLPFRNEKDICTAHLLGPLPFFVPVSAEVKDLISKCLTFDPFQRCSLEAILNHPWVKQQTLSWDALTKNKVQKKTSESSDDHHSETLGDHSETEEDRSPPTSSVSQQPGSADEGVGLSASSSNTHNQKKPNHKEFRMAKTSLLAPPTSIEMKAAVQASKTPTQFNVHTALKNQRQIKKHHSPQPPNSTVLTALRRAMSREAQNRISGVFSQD

PIM-1 [3] = molecular target: T1, PIM-1; test: radioactive in vitro kinase assay (autophosphorylation and NFATC1 […]-418 phosphorylation); conditions: 10 µM inhibitor, 10-20 min pre-incubation, gamma-32P-ATP, 0.1% DMSO control
PRK-2 [4] = molecular target: T2, PRK-2; test: as above; conditions: 10 µM inhibitor, 10-20 min pre-incubation, gamma-32P-ATP, 0.1% DMSO control

T1 sequence (P11309 whole entry, the tested form may be a part, canonical isoform): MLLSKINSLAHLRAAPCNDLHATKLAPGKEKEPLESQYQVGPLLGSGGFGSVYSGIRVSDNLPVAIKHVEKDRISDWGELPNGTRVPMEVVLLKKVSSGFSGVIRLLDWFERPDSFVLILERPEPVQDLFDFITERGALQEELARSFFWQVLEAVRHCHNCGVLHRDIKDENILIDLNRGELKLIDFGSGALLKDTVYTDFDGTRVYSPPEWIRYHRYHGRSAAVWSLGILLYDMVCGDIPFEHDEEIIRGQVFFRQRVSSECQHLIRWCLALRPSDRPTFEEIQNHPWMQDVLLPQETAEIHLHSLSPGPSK

| SMILES | radioactive in vitro kinase assay, autoradiography (PIM-1 [1]) | radioactive in vitro kinase assay, autoradiography (PRK-2 [2]) | relative phosphorylation at 10 μM (PIM-1 [3]) | relative phosphorylation at 10 μM (PRK-2 [4]) |
| --- | --- | --- | --- | --- |
| Nc1ncnc2c1ncn2[C@@H]1O[C@H](COP(=O)(O)OP(=O)(O)OP(=O)(O)O)[C@@H](O)[C@H]1O [γ-32P-ATP] | both PIM-1 and PRK-2 were able to autophosphorylate themselves | both PIM-1 and PRK-2 were able to autophosphorylate themselves | – | – |
| O=Cc1c[nH]c2c1ccc1c3ccccc3[nH]c12 [DHPCC-9] | – | – | DHPCC-9 was able to inhibit autophosphorylation of not only PIM-1, but also PRK-2 | DHPCC-9 was able to inhibit autophosphorylation of not only PIM-1, but also PRK-2 |
